According to patent US20180362488A1, “STEREOISOMER OF FLOCOUMAFEN, COMPOSITION AND RODENTICIDE BAIT COMPRISING SAME, AND METHOD FOR CONTROLLING TARGET RODENT PESTS” (priority 2015, published 2018):

Assay type: in vivo, Sprague-Dawley rats
Conditions: compared with enantiomer E4 and flocoumafen
Description: The configurational stereoisomers of flocoumafen are separated by high-pressure liquid chromatography using a LUX® Cellulose-4 chiral column (00F-4490-B0, Phenomenex, Le Pecq, France) as stationary phase and a mixture formed from acetonitrile (A) and water comprising 0.1% by volume of formic acid (B), with an AB volume ratio of 92/8, as mobile phase with a flow rate of the liquid mobile phase in the chromatography column of 0.25 mL/minute. 1 μL of extract to be analysed at a concentration of 1 μg/mL of acetonitrile is injected. Detection is performed by tandem mass spectrometry (MS/MS) in negative electrospray ionization (ESI) mode. The temperature of the nebulizer gas is 350° C. and its flow rate is 8 L/minute. The pressure of the nebulizer gas is brought to 2700 hPa. In particular, the MRM (“Multiple Reaction Monitoring”) transitions m/z 541.1→382.1 and m/z 541.1→161, corresponding to the flocoumafen signal, are analysed.
About 0.525 g (±0.025 g) of rat liver is weighed out accurately and placed in a 50 mL polypropylene tube. 10 mL of acetone are added and the suspension is homogenized using an Ultra-Turrax® homogenizer/disperser for a time of about 30 seconds. The homogenizer/disperser shaft is rinsed with hot water and then twice with 20 mL of acetone in a polypropylene tube. The homogenate is centrifuged for 5 minutes at a centrifugation speed of 3000 rpm (revolutions per minute). […]

**Q.** Which “Persistence in the liver of the male and female rats” value does the source give for O=c1oc2ccccc2c(O)c1C1CC(c2ccc(OCc3ccc(C(F)(F)F)cc3)cc2)Cc2ccccc21 (single isomer, unassigned) [Enantiomer E2] here?
**A.** The value was “lower than the persistence of enantiomer E4 of said diastereoisomer D1,4 and lower than the persistence of flocoumafen”.
